Measurements reported in patent US20190282640A1 (priority 2016, published 2019).

Biological target: C5 (Homo sapiens, UniProt P01031)
Format: cell-based

C5, sequence (P01031 678-1676): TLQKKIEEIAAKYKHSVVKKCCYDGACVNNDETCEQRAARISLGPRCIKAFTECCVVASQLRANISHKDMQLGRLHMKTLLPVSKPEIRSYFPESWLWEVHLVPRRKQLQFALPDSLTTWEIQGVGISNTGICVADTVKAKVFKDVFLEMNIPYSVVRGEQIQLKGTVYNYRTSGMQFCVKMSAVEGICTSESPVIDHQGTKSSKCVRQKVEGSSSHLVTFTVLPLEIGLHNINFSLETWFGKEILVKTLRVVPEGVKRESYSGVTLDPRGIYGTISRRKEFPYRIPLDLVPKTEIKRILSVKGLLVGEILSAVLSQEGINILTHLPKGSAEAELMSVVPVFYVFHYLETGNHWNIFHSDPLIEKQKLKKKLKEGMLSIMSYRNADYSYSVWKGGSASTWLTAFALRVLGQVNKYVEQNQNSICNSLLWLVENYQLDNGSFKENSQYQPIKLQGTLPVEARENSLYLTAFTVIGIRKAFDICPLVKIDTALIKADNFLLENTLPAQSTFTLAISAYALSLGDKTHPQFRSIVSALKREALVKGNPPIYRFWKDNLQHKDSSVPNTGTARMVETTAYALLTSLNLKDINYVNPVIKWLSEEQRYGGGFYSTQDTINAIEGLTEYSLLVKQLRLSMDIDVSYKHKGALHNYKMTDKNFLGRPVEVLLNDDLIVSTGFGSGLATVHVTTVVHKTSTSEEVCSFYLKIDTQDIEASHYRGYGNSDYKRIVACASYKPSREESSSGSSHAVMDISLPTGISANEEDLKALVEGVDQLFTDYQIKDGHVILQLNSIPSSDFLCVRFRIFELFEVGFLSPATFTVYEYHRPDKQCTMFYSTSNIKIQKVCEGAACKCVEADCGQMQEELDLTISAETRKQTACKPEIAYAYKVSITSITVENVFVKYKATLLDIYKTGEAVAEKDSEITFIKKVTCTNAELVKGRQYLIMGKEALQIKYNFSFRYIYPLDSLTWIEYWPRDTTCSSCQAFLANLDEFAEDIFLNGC
C5, sequence (P01031 19-673): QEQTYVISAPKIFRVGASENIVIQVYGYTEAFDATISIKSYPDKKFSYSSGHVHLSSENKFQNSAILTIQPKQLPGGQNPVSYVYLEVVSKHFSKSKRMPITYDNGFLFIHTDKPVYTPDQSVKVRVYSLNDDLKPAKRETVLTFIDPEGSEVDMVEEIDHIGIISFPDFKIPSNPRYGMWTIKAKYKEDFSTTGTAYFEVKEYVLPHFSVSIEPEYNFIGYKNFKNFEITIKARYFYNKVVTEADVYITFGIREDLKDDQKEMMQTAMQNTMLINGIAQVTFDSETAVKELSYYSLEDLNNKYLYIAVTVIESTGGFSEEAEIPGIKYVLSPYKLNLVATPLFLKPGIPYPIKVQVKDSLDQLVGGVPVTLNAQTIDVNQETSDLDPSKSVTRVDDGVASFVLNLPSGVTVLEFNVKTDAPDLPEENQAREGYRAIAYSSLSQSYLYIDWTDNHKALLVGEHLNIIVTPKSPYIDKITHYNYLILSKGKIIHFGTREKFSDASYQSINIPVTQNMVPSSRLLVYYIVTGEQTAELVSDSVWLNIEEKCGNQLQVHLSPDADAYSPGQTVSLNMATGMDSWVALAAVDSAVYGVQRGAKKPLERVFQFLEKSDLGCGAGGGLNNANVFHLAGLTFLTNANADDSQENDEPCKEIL

Substance: Eculizumab
- effect of C5 inhibition on MRB LCMV G neutralization: able to prevent viral neutralization
